Reference: ChEMBL document CHEMBL1201862, “PubChem BioAssay data set” (2004)
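Values below derive from 48-hour exposures of cells grown in 96-well plates, with endpoints linearly interpolated between the two concentrations bracketing the appropriate inhibition level. The concentration for 50% growth inhibition is given as GI50.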 Calls of active or inactive are those of the source. Cut-off read from the data, not from the text of the source: active = GI50 up to about 1.1 µM and inactive = higher.

How the values were obtained:
Test in all cases: NCI-60 cell line screen, 48 h
OVCAR-3 = test system: OVCAR-3
IGROV-1 = test system: IGROV-1
SW-620 = test system: SW-620
HL-60 = test system: HL-60
DU-145 = test system: DU-145
HOP-62 = test system: HOP-62
HT-29 = test system: HT-29
RPMI-8226 = test system: RPMI-8226
SR = test system: SR
T47D = test system: T47D
MDA-MB-231 = test system: MDA-MB-231
SNB-75 = test system: SNB-75
SK-MEL-5 = test system: SK-MEL-5
OVCAR-8 = test system: OVCAR-8
NCI/ADR-RES = test system: NCI/ADR-RES
HCT-15 = test system: HCT-15
HCT-116 = test system: HCT-116
DLD-1 = test system: DLD-1
SNB-78 = test system: SNB-78
HOP-18 = test system: HOP-18

Row | Compound | GI50 (OVCAR-3) | GI50 (IGROV-1) | GI50 (SW-620) | GI50 (HL-60) | GI50 (DU-145) | GI50 (HOP-62) | GI50 (HT-29) | GI50 (RPMI-8226) | GI50 (SR) | GI50 (T47D) | GI50 (MDA-MB-231) | GI50 (SNB-75) | GI50 (SK-MEL-5) | GI50 (OVCAR-8) | GI50 (NCI/ADR-RES) | GI50 (HCT-15) | GI50 (HCT-116) | GI50 (DLD-1) | GI50 (SNB-78) | GI50 (HOP-18)
1 | Nc1nc(SCC(=O)O)nc(O)c1N | > 100 µM (inactive) | > 100 µM (inactive) | 31 µM (inactive) | 56.1 µM (inactive) | > 100 µM (inactive) | > 100 µM (inactive) | > 100 µM (inactive) | 32.7 µM (inactive) | 22.6 µM (inactive) | > 100 µM (inactive) | > 100 µM (inactive) | 50.2 µM (inactive) | > 100 µM (inactive) | 78.5 µM (inactive) | > 100 µM (inactive) | > 100 µM | 35.6 µM (inactive) |  |  | 
2 | O=c1c2cc(Br)ccc2nc(CCl)n1-c1ccc(O)c([N+](=O)[O-])c1 | 18.2 µM (inactive) | 24 µM (inactive) | 19.2 µM (inactive) | 23.2 µM (inactive) |  | 20.9 µM (inactive) | 27.7 µM (inactive) | 25 µM (inactive) |  |  |  | 20.8 µM (inactive) | 15.9 µM (inactive) | 19.9 µM (inactive) |  | 19.7 µM |  | 17.7 µM (inactive) | 22.9 µM (inactive) | 
3 | OCC1OC(c2nc(C3=NCCCN3)cs2)C(O)C1O (centres undefined) | > 10 µM (inactive) | > 100 µM (inactive) | > 100 µM (inactive) | > 100 µM (inactive) |  | > 100 µM (inactive) | > 100 µM (inactive) | > 100 µM (inactive) |  |  |  |  |  | > 100 µM (inactive) |  | > 100 µM | > 100 µM (inactive) | > 100 µM (inactive) | > 100 µM (inactive) | > 100 µM (inactive)
4 | CN(/N=C/c1cccc2cccnc12)c1ccc([N+](=O)[O-])cc1 | > 100 µM (inactive) | > 100 µM (inactive) | > 100 µM (inactive) | > 100 µM (inactive) |  | > 100 µM (inactive) | 20.7 µM (inactive) | > 100 µM (inactive) |  |  |  | 21.4 µM (inactive) | > 100 µM (inactive) | > 100 µM (inactive) |  | > 100 µM | > 100 µM (inactive) | > 100 µM (inactive) | > 100 µM (inactive) | > 100 µM (inactive)
5 | C=C1CCc2occ(C)c2C2C1C1=C(CC(C)C1=O)C1OC12C (centres undefined) | > 100 µM (inactive) | > 100 µM (inactive) | > 100 µM (inactive) |  |  | > 100 µM (inactive) | > 100 µM (inactive) |  |  |  |  | 34.7 µM (inactive) | 52.2 µM (inactive) | > 100 µM (inactive) |  | > 100 µM | 83 µM (inactive) | > 100 µM (inactive) | > 100 µM (inactive) | 2.26 µM (inactive)
6 | Cc1cccc2c1Oc1cc(Cl)ccc1C2NC(=O)CN(C)C (centres undefined) |  | 35.2 µM (inactive) | 66.4 µM (inactive) | 17.1 µM (inactive) |  | 57.7 µM (inactive) | 36.6 µM (inactive) | 29.2 µM (inactive) | 31.4 µM (inactive) |  |  | 21.1 µM (inactive) | 21.6 µM (inactive) | > 100 µM (inactive) |  | 45.2 µM | 27.5 µM (inactive) | 58.3 µM (inactive) | 50.7 µM (inactive) | 
7 | c1ccc2c(c1)N=C(c1ccc3ccccc3c1)CC(c1cccc3ccccc13)S2 (centres undefined) | 33 µM (inactive) | 14 µM (inactive) | 32.8 µM (inactive) | 15.1 µM (inactive) |  | 85.5 µM (inactive) | 30.2 µM (inactive) | 11.2 µM (inactive) |  |  |  | 56.5 µM (inactive) | 38.5 µM (inactive) | 37.9 µM (inactive) |  | 21.3 µM |  | 11.6 µM (inactive) |  | > 100 µM (inactive)
8 | CC(C)CCC[C@@H](C)[C@H]1CC[C@H]2[C@@H]3CC=C4CC(OCCCCN(O)CCCSC5OC(CO)C(O)C(O)C5O)CC[C@]4(C)[C@H]3CC[C@]12C (some centres undefined) |  | 22.1 µM (inactive) | 22.6 µM (inactive) | 25.8 µM (inactive) |  | 94.2 µM (inactive) | 30.4 µM (inactive) | > 100 µM (inactive) | 34.7 µM (inactive) |  |  | 65.8 µM (inactive) | 70.5 µM (inactive) | 74.1 µM (inactive) |  | 43.4 µM | 56.1 µM (inactive) | 56.4 µM (inactive) | 74.8 µM (inactive) | 
9 | Cl[Si]1(Cl)Oc2ccccc2O[Si](Cl)(Cl)Oc2ccccc2O1 | 21.7 µM (inactive) | 28.6 µM (inactive) | 15 µM (inactive) | 1.25 µM (inactive) |  | 26.2 µM (inactive) | 17 µM (inactive) | 9.18 µM (inactive) |  |  |  | 19.9 µM (inactive) | 12.4 µM (inactive) | 30.5 µM (inactive) |  | 21 µM | 33.2 µM (inactive) | 34 µM (inactive) |  | 
10 | Cc1c(Cl)cccc1NC(=O)CC1C(=O)Nc2ccccc2S1(=O)=O (centres undefined) | 16.6 µM (inactive) | 15.3 µM (inactive) | 20 µM (inactive) | 2.72 µM (inactive) |  |  | 17.6 µM (inactive) | 11.6 µM (inactive) | 10.5 µM (inactive) |  |  | 17.2 µM (inactive) | 12.2 µM (inactive) | 18.4 µM (inactive) |  | 10.3 µM | 15.8 µM (inactive) | 15.1 µM (inactive) | 20.2 µM (inactive) | 
11 | CC(C)N(C(=O)C12C3C4C5(C#N)C3C1(C#N)C5C42C#N)C(C)C (centres undefined) | > 100 µM (inactive) | > 100 µM (inactive) | > 100 µM (inactive) | > 100 µM (inactive) |  | > 100 µM (inactive) | > 100 µM (inactive) | > 100 µM (inactive) |  |  |  | > 100 µM (inactive) | > 100 µM (inactive) | > 100 µM (inactive) |  |  | > 100 µM (inactive) | > 100 µM (inactive) | > 100 µM (inactive) | > 100 µM (inactive)
12 | COc1ccc(OC)c(NCC#N)c1 | > 100 µM (inactive) | > 100 µM (inactive) | > 100 µM (inactive) | > 100 µM (inactive) |  | > 100 µM (inactive) | > 100 µM (inactive) | > 100 µM (inactive) |  |  |  | > 100 µM (inactive) | > 100 µM (inactive) | > 100 µM (inactive) |  | > 100 µM | > 100 µM (inactive) |  |  | > 100 µM (inactive)
13 | CC(=O)OCCOCNC(=S)N/N=C/c1cc([N+](=O)[O-])ccc1O | 42.5 µM (inactive) | > 100 µM (inactive) | 84.9 µM (inactive) | > 100 µM (inactive) |  | > 100 µM (inactive) | > 100 µM (inactive) |  |  |  |  | > 100 µM (inactive) | > 100 µM (inactive) | 90.2 µM (inactive) |  | > 100 µM | 64.3 µM (inactive) | > 100 µM (inactive) | > 100 µM (inactive) | > 100 µM (inactive)
14 | CCN1CCC(O)(/C=C/c2ccc(Cl)cc2)C(C(=O)/C=C/c2ccc(Cl)cc2)C1 (centres undefined) | 18.9 µM (inactive) | 27.1 µM (inactive) | 21.2 µM (inactive) | 17.5 µM (inactive) |  | > 100 µM (inactive) | 18.6 µM (inactive) | 2.88 µM (inactive) | 34.5 µM (inactive) |  |  | 33.9 µM (inactive) | 13.5 µM (inactive) | 24.4 µM (inactive) |  | 21.7 µM | 3.63 µM (inactive) | 16.5 µM (inactive) | 45.5 µM (inactive) | 
15 | C=CCCC12CCCC(=O)C1Sc1ccc3ccccc3c12 (centres undefined) | 13.6 µM (inactive) | 33.8 µM (inactive) | 15.9 µM (inactive) | 7.08 µM (inactive) |  | 19.8 µM (inactive) | 20.1 µM (inactive) | 12.9 µM (inactive) |  |  |  | 22.8 µM (inactive) | > 10 µM (inactive) | 32.1 µM (inactive) |  | 11.1 µM |  | 22.4 µM (inactive) | 20.8 µM (inactive) | 19.7 µM (inactive)
16 | C[NH+]1[C@@H](Cc2ccccc2)C(=O)O[B-]1(F)c1ccccc1 (some centres undefined) | > 100 µM (inactive) | > 100 µM (inactive) | > 100 µM (inactive) | > 100 µM (inactive) | > 100 µM (inactive) | > 100 µM (inactive) | > 100 µM (inactive) | > 100 µM (inactive) | > 100 µM (inactive) | > 100 µM (inactive) | > 100 µM (inactive) | > 100 µM (inactive) | > 100 µM (inactive) | > 100 µM (inactive) | > 100 µM (inactive) | > 100 µM | > 100 µM (inactive) |  |  | 
17 | C=CCC1[C@@H](C(C)(C)C(C(C)=O)C(=O)C(=O)OC)OC(C(C)(C)C)N1C(=O)OC (some centres undefined) | > 100 µM (inactive) |  |  |  |  | > 100 µM (inactive) | > 100 µM (inactive) |  |  |  |  | 80.4 µM (inactive) | > 100 µM (inactive) | > 100 µM (inactive) |  | > 100 µM | 47.4 µM (inactive) | > 100 µM (inactive) | > 100 µM (inactive) | > 100 µM (inactive)
18 | COc1cc2c(c(OC)c1OC)-c1ccc(OC)c(=O)cc1[C@@H](N(C)C=O)CC2 | 0.0112 µM (active) | 0.0262 µM (active) | 0.0134 µM (active) | 0.0158 µM (active) |  | < 0.0164 µM (active) | 0.0156 µM (active) | 0.0249 µM (active) |  |  |  | < 0.01 µM (active) | < 0.01 µM (active) | 0.0218 µM (active) |  | 0.0752 µM | 0.0173 µM (active) | 0.0198 µM (active) | 0.0135 µM (active) | > 100 µM (inactive)
19 | CO[C@@H]1C[C@H](OC(N)=O)[C@@H]2C=C[C@@H]3/C=C(C)/C=C/[C@@H](C)[C@H](/C(C)=C/[C@@H](C)NC(C)=O)OC(=O)/C=C/C=C(C)\C=C\[C@]3(C)[C@@H]2C1 [SUPERSTOLIDE B] | < 0.005 µM (active) | < 0.005 µM (active) | < 0.005 µM (active) | < 0.005 µM (active) | < 0.005 µM (active) | < 0.005 µM (active) | < 0.005 µM (active) | 0.0158 µM (active) | < 0.005 µM (active) | < 0.005 µM (active) | < 0.005 µM (active) | < 0.005 µM (active) | < 0.005 µM (active) | 0.00607 µM (active) | < 0.005 µM (active) | 0.00518 µM | < 0.005 µM (active) |  |  | 
